Molecules are shown by their SMILES.

What all share (format): in vivo
Data set [1] concerns Oryza sativa. Kind of data set: Table 9 greenhouse trial, treatment at the 1-2 leaf stage: rice damage. As to conditions: 22 days after application. Here is the method:
(§1) Seeds or rhizome pieces of mono- and dicotyledonous weed plants are placed into sandy loam soil in plastic pots, covered with soil and grown in a greenhouse under good growth conditions (temperature, atmospheric humidity, water supply). Weeds which are encountered in the cultivation of rice are cultivated in pots in which the water level is up to 2 cm over the soil surface. Three weeks after sowing, the test plants are treated at the three-leaf stage. The active compound combinations according to the invention, formulated as wettable powders or emulsion concentrates, and, in parallel experiments, the correspondingly formulated individual active compounds are sprayed onto the green parts of the plants at different dosages using an amount of water of 300 to 600 l/ha (converted), and, after about 3 to 4 weeks of the test plants in the greenhouse under optimum growth conditions (temperature, atmospheric humidity, water supply), the effect of the preparations is evaluated visually in comparison to untreated controls. In the case of rice or weeds which are encountered in the cultivation of rice, the active compounds are also added directly to the water for irrigation (application analogous to the so-called granules application) or sprayed onto plants and added to the water for irrigation. The experiments were designed with several, up to five, repetitions. The herbicidal compositions according to the invention also have good herbicidal post-emergence activity against a broad spectrum of economically important weed grasses and broad-leaved weeds.
(§2) Greenhouse trial: Treatment at the 1-2 leaf stage, evaluation 22 days after the application.

Data set [2] concerns Echinochloa crusgalli. Kind of data set: Table 9 greenhouse trial, treatment at the 1-2 leaf stage: weed control. As to conditions: 22 days after application. Here is the method:
as §1, §2

Data set [3] relates to Oryza sativa. The experiment in a line: Table 15 greenhouse trial, treatment at the 2-3 leaf stage: rice damage. As to conditions: 20 days after application. Here is the method:
as §1

Data set [4] concerns Scirpus maritimus. Kind of data set: Table 15 greenhouse trial, treatment at the 2-3 leaf stage: weed control. To be noted: 20 days after application. The method, then: as §1
Data set [5] has as its system Oryza sativa. The experiment in a line: Table 10 greenhouse trial, treatment at the 1-2 leaf stage: rice damage. To be noted: greenhouse trial, 20 days after application. Here is the method:
as §1
(§3) Greenhouse trial: Treatment at the 1-2 leaf stage, evaluation 20 days after the application.

In data set [6] the test system is Scirpus juncoides. Kind of data set: Table 10 greenhouse trial, treatment at the 1-2 leaf stage: weed control. To be noted: 20 days after application. The method, then:
as §1, §3

In data set [7] the test system is Sagittaria pygmaea. Kind of data set: Table 14 greenhouse trial, treatment at the 3-4 leaf stage: weed control. As to conditions: 21 days after application. Here is the method: as §1
(§4) Greenhouse trial: Treatment at the 3-4 leaf stage, evaluation 21 days after the application.

Data set [8] concerns Oryza sativa. Kind of data set: Table 14 greenhouse trial, treatment at the 3-4 leaf stage: rice damage. To be noted: 21 days after application. Here is the method:
as §1, §4

The subject of data set [9] is Oryza sativa (paddy rice). Kind of data set: Table 1: damage to paddy rice.
Method: (§8) The examples mentioned below were carried out in the greenhouse, and in some instances, in field trials.
Data set [10] relates to Cucumis dipsaceus. Kind of data set: Table 1: weed control by A1*), safener C3-1) and combination.
Method: as §8
Data set [11] deals with Cyperus serotinus. The experiment in a line: Table 16 greenhouse trial, treatment at the 2-3 leaf stage: weed control. As to conditions: 20 days after application. Here is the method: as §1
(§5) Greenhouse trail: Treatment at the 2-3 leaf stage, evaluation 20 days after the application.

For data set [12], the system named is Oryza sativa. The experiment in a line: Table 16 greenhouse trial, treatment at the 2-3 leaf stage: rice damage. As to conditions: 20 days after application. Here is the method:
as §1, §5

Data set [13] deals with Echinochloa crusgalli. Kind of data set: Table 17 field trial, treatment at the 2 leaf stage: weed control. To be noted: 14 days after application. The source says:
Field trial: Treatment at the 2 leaf stage, evaluation 14 days after the application.

For data set [14], the system named is Cyperus iria. The experiment in a line: Table 23 field trial, treatment: 4-6 leaf stage: weed control. To be noted: 36 days after application. The source says: (§6) Field trial: Treatment: 4-6 leaf stage, evaluation 36 days after the application.
The subject of data set [15] is Oryza sativa. The experiment in a line: Table 23 field trial, treatment: 4-6 leaf stage: rice damage. As to conditions: 36 days after application.
Text: as §6

In data set [16] the test system is Oryza sativa. The experiment in a line: Table 13 greenhouse trial, treatment at the 5-6 leaf stage: rice damage. As to conditions: 20 days after application. Here is the method:
as §1
(§7) Greenhouse trial: Treatment at the 5-6 leaf stage, evaluation 20 days after the application.

In data set [17] the test system is Sagittaria pygmaea. The experiment in a line: Table 13 greenhouse trial, treatment at the 5-6 leaf stage: weed control. To be noted: 20 days after application. Here is the method: as §1, §7
Data set [18] concerns Oryza sativa. Kind of data set: Table 5 field trial, treatment at the 2-4 leaf stage rice: rice damage. As to conditions: evaluation after 28 days.
Method: as §8
In data set [19] the test system is Echinochloa crusgalli. The experiment in a line: Table 5 field trial, treatment at the 2-4 leaf stage rice: weed control. To be noted: evaluation after 28 days.
Method: as §8

`COc1cc(OC)nc(Oc2cccc(Oc3nc(OC)cc(OC)n3)c2C(=O)O)n1` [B48), sodium 2,6-bis[(4,6-dimethoxypyrimidin-2-yl)oxy]-benzoate]: the ORYSW % damage in data set [1] (19 g of ai/ha) is reported as 0%; in data set [1] (38 g of ai/ha) it was 0%; in data set [1] (75 g of ai/ha) it was 5%. The ECHCG % control came out at 15% in data set [2] (19 g of ai/ha), 30% in [2] (38 g of ai/ha) and 40% in data set [2] (75 g of ai/ha).
Regarding `COc1cc(OC)nc(NC(=O)NS(=O)(=O)c2c(-c3nnn(C)n3)cnn2C)n1` [B64), azimsulfuron], the ORYSW % damage was found to be 3% in data set [3] (5 g of ai/ha), 8% in data set [3] (9 g of ai/ha), 10% in data set [3] (18 g of ai/ha) and 10% in data set [3] (37 g of ai/ha). In addition, the SCIMA % control in data set [4] (5 g of ai/ha) turned out to be 78%; in data set [4] (9 g of ai/ha), 80%; in data set [4] (18 g of ai/ha), 83%; in data set [4] (37 g of ai/ha), 85%.
`COc1cc(OC)nc(NC(=O)NS(=O)(=O)c2c(C(=O)O)cnn2C)n1` [B59), 5-[[[[(4,6-dimethoxy-2-pyrimidinyl)amino]carbonyl]-amino]sulfonyl]-1-methyl-1H-pyrazol-4-carboxylic acid]: the ORYSW % damage in data set [5] (7.5 g of ai/ha) was 0%; in data set [5] (15 g of ai/ha), 0%; in [5] (30 g of ai/ha), 2%. Moreover, the SCIJU % control worked out at 50% in [6] (7.5 g of ai/ha), 55% in data set [6] (15 g of ai/ha) and 60% in data set [6] (30 g of ai/ha).
Regarding `CC1=C(c2ccccc2)C(=O)N(C(C)(C)c2cc(Cl)cc(Cl)c2)CO1` [B73), oxaziclomefone], the SAGPY % control in [7] (50 g of ai/ha) is 10%; in data set [7] (100 g of ai/ha) it was 15%; in [7] (200 g of ai/ha) it was 20%. The ORYSW % damage in [8] (50 g of ai/ha) worked out at 0%; in data set [8] (100 g of ai/ha), 0%; in [8] (200 g of ai/ha), 5%.
In the case of `CCOC(=O)C1=NOC(c2ccccc2)(c2ccccc2)C1` [C3-1), ethyl 5,5-diphenyl-2-isoxazoline-3-carboxylate], the ORYSW % damage in data set [9] (15 g of ai/ha), in data set [9] (30 g of ai/ha) and in [9] (60 g of ai/ha) was 0% in each case. Moreover, the CUMDI % control in data set [10] (15 g of ai/ha), in [10] (30 g of ai/ha) and in data set [10] (60 g of ai/ha) was 0% each time.
Regarding `COc1cc(OC)nc(Oc2cccc(Oc3nc(OC)cc(OC)n3)c2C(=O)ON=C(c2ccccc2)c2ccccc2)n1` [B72), pyribenzoxim], the CYPSE % control was 25% in data set [11] (18.75 g of ai/ha), 35% in [11] (37.5 g of ai/ha) and 60% in [11] (75 g of ai/ha). For the same compound, the ORYSW % damage turned out to be 3% in data set [12] (18.75 g of ai/ha), 8% in [12] (37.5 g of ai/ha) and 8% in data set [12] (75 g of ai/ha).
Regarding `C#CCOc1cc(-n2nc(C(C)(C)C)oc2=O)c(Cl)cc1Cl` [B51), 5-tert-butyl-3-[2,4-dichloro-5-(prop-2-ynyloxy)-phenyl]-1,3,4-oxadiazol-2(3H)-one], the ECHCG % control in [13] (25 g of ai/ha) is given as 37%; in data set [13] (50 g of ai/ha) it was 63%; in [13] (100 g of ai/ha), 63%; in data set [13] (200 g of ai/ha), 80%.
For the compound `CC(C)N1C(=O)c2ccccc2NS1(=O)=O` [B39), 3-isopropyl-1H-2,1,3-benzothiadiazin-4(3H)-one-2,2-dioxide], the values for the CYPIR % control in data set [14] (250 g of ai/ha), in data set [14] (400 g of ai/ha) and in data set [14] (800 g of ai/ha) were 42%, 78% and 97%, respectively. Besides, the ORYSW % damage in data set [15] (250 g of ai/ha) came to 0%; in data set [15] (400 g of ai/ha), 0%; in [15] (800 g of ai/ha), 3%.
On to `CCN(C(=O)n1nnn(-c2ccccc2Cl)c1=O)C1CCCCC1` [B17), 4-(2-chlorophenyl)-5-oxo-4,5-dihydro-tetrazole-1-carboxylic acid cyclohexyl-ethyl-amide], for which the ORYSW % damage in [16] (50 g of ai/ha), in [16] (100 g of ai/ha) and in data set [16] (200 g of ai/ha) was 0% in each case. The SAGPY % control in data set [17] (50 g of ai/ha) was 0%; in data set [17] (100 g of ai/ha), 40%; in data set [17] (200 g of ai/ha), 80%.
With `CCCOCCN(C(=O)CCl)c1c(CC)cccc1CC` [B4), 2-chloro-N-(2,6-diethylphenyl)-N-(2-propoxyethyl)acetamide], the SAGPY % control in [7] (125 g of ai/ha) is 65%; in data set [7] (250 g of ai/ha) it was 70%; in data set [7] (500 g of ai/ha) it was 75%. The ORYSW % damage in data set [8] (125 g of ai/ha) is given as 15%; in [8] (250 g of ai/ha), 15%; in [8] (500 g of ai/ha), 35%.
Consider `COc1cc(OC)nc(NC(=O)NS(=O)(=O)Cc2ccccc2C(=O)O)n1` [B58), 2-[[[[[(4,6-dimethoxy-2-pyrimidinyl)amino]carbonyl]-amino]sulfonyl]methyl]benzoic acid], for which the ORYSW % damage in data set [5] (7.5 g of ai/ha) was 0%; in [5] (15 g of ai/ha), 0%; in data set [5] (30 g of ai/ha), 2%; in data set [5] (60 g of ai/ha), 5%. The SCIJU % control came to 35% in data set [6] (7.5 g of ai/ha), 40% in data set [6] (15 g of ai/ha), 55% in data set [6] (30 g of ai/ha) and 60% in data set [6] (60 g of ai/ha).
Consider `O=C(O)c1c(Cl)ccc2cc(Cl)cnc12` [B13), 3,7-dichloro-8-quinolincarboxylic acid], for which the SAGPY % control in data set [7] (250 g of ai/ha), in data set [7] (500 g of ai/ha) and in [7] (1000 g of ai/ha) was 30% throughout. Besides, the ORYSW % damage in [8] (250 g of ai/ha), in data set [8] (500 g of ai/ha) and in data set [8] (1000 g of ai/ha) was 0% each time.
For the compound `COP(=S)(OC)SCC(=O)N(c1ccc(Cl)cc1)C(C)C` [B19), S-[2-[(4-chlorophenyl)(1-methylethyl)amino]-2-oxo-ethyl]O,O-dimethylphosphorodithioate], the values for the ORYSW % damage in data set [18] (250 g of ai/ha) and in data set [18] (500 g of ai/ha) were 2% and 10%, respectively. For the same compound, the ECHCG % control in data set [19] (250 g of ai/ha) is listed as 30%; in data set [19] (500 g of ai/ha), 40%.

(Values after patent publication US6864217B2, “Herbicidal compositions with substituted phenylsulfonylureas for controlling weeds in rice” (Hoechst Schering AgrEvo GmbH, priority 1998, dated 2005).)
